Test results as given in patent publication US20250312299A1, “COMPOSITION COMPRISING THIOUREA DERIVATIVE FOR PREVENTION OR TREATMENT OF FIBROTIC DISEASE” (THERASID BIOSCIENCE INC., priority 2022, published 2025).

What was measured:
Format in all cases: cell-based
[1] = system: LX2 cells; assay: CCK-8 cell viability assay, liver cell line (LX2); settings: LX2 liver (stellate) cells, 20 μM, 24 hours, CCK-8, FIG. 1
Description: (§1) LX2 cells, which are liver cells (stellate cells), were seeded at 1×10^4 per well in a 96 well plate, cultured for 24 hours in a 37° C., 5% CO2 incubator, and then treated with the compound of the present invention (TB-840) at a concentration of 20 μM for 24 hours. After culturing for 24 hours, the cells were treated with 10 μl of CCK-8 solution for 2 hours.

[2] = system: A549 cells; assay: CCK-8 cell viability assay, lung cell line (A549); settings: A549 lung carcinoma cells, 20 μM, 24 hours, CCK-8, FIG. 2
Description: as §1, with “A549” for “LX2”, “lung” for “liver”, “(lung carcinoma” for “(stellate”, “1.5×10^4” for “1×10^4”

[3] = system: HK-2 cells; assay: CCK-8 cell viability assay, kidney cell line (HK-2); settings: HK-2 kidney proximal tubular cells, 20 μM, 24 hours, CCK-8, FIG. 3
Description: as §1, with “HK-2” for “LX2”, “kidney” for “liver”, “(proximal tubular” for “(stellate”

[4] = system: collagen type 1 (COL1A1); assay: RT-qPCR gene expression of COL1A1 in TGF-β treated LX2 cells; settings: TGF-β 10 ng/ml + compound 20 μM, 24 hours, FIG. 4
Description: (§2) In order to confirm the inhibitory effect of the compound of the present invention on the gene expression of fibrosis-related markers, the gene expression of collagen type 1 (type 1 collagen; COL1A1) and fibronectin, which are fibrosis-related markers, was confirmed through RT-qPCR analysis. As a control group, TGF-β (transforming growth factor-β) was used. TGF-β is known to promote the production of extracellular matrix such as collagen and promote fibrosis of tissues.
(§3) LX2 cells were seeded at 3.5×10^5 per well in a 6 well plate, cultured for 24 hours in a 37° C., 5% CO2 incubator, and then treated with TGF-β at a concentration of 10 ng/ml and the compound of the present invention (TB-840) at a concentration of 20 μM, and cultured for 24 hours. After culturing for 24 hours, the cells were washed twice with phosphate buffered saline (PBS), and then RNA extraction was performed using a RNA-spin™ total RNA extraction kit (iNtRON Biotechnology, Cat no. 17211) protocol. Thereafter, the RNA concentration was measured using a Nanodrop device, and cDNA was synthesized using a Maxime™ RT PreMix (iNtRON Biotechnology, Cat no. 25081) and a MiniAmp™ Termal Cycler device. Thereafter, the gene expression levels of COL1A1 and fibronectin were measured using a QuantStudio 5 Real-Time PCR device.

[5] = system: fibronectin; assay: RT-qPCR gene expression of fibronectin in TGF-β treated LX2 cells; settings: TGF-β 10 ng/ml + compound 20 μM, 24 hours, FIG. 5
Description: as §2, §3

[6] = system: collagen type 1 (COL1A1); assay: RT-qPCR gene expression of COL1A1 in TGF-β treated A549 cells; settings: TGF-β 10 ng/ml + compound 20 μM, 24 hours, FIG. 6
Description: as §2
as §3, with “A549” for “LX2”, “2.5×10^5” for “3.5×10^5”

[7] = system: fibronectin; assay: RT-qPCR gene expression of fibronectin in TGF-β treated A549 cells; settings: TGF-β 10 ng/ml + compound 20 μM, 24 hours, FIG. 7
Description: as §2
as §3, with “A549” for “LX2”, “2.5×10^5” for “3.5×10^5”

[8] = system: collagen type 1 (COL1A1); assay: RT-qPCR gene expression of COL1A1 in TGF-β treated HK-2 cells; settings: TGF-β 10 ng/ml + compound 20 μM, 24 hours, FIG. 8
Description: as §2
as §3, with “HK-2” for “LX2”, “2×10^5” for “3.5×10^5”

[9] = system: fibronectin; assay: RT-qPCR gene expression of fibronectin in TGF-β treated HK-2 cells; settings: TGF-β 10 ng/ml + compound 20 μM, 24 hours, FIG. 9
Description: as §2
as §3, with “HK-2” for “LX2”, “2×10^5” for “3.5×10^5”

[10] = system: collagen type 1 (COL1A1); assay: Western blot protein expression of COL1A1 in TGF-β treated LX2 cells; settings: TGF-β 10 ng/ml + compound 20 μM, 48 hours, FIGS. 10 to 12
Source text: (§4) In order to confirm the inhibitory effect of the compound of the present invention on the protein expression of fibrosis-related markers, the protein expression of collagen type 1 (type 1 collagen; COL1A1) and fibronectin, which are fibrosis-related markers, and HSP60 was confirmed through Western blot analysis. As a control group, TGF-β (transforming growth factor-β) was used. TGF-β is known to promote the production of extracellular matrix such as collagen and promote fibrosis of tissues.
(§5) LX2 cells were seeded at 7.6×10^5 per dish in a 60 φ dish, cultured for 24 hours in a 37° C., 5% CO2 incubator, and then treated with TGF-β at a concentration of 10 ng/ml and the compound of the present invention (TB-840) at a concentration of 20 μM, and cultured for 48 hours. After collecting the cultured cells, the cell pellet was spun down using a centrifuge (13,000 rpm, 5 min, 4° C.) and then lysed by adding lysis buffer with vortexing for 1 hour at 10-minute intervals, and then cell membrane components, etc. were removed using a centrifuge (13,000 rpm, 20 min, 4° C.). The sample was prepared by measuring according to the protocol using a BCA protein assay kit. […] Thereafter, the primary antibody was reacted overnight, and then the secondary antibody was bound, and the protein expression of COL1A1 and fibronectin was measured using an Azure biosystems (C300) device.

[11] = system: fibronectin; assay: Western blot protein expression of fibronectin in TGF-β treated LX2 cells; settings: TGF-β 10 ng/ml + compound 20 μM, 48 hours, FIGS. 10 to 12
Source text: as §4, §5

[12] = system: HSP60; assay: Western blot protein expression of HSP60 in TGF-β treated LX2 cells; settings: TGF-β 10 ng/ml + compound 20 μM, 48 hours, FIGS. 10 to 12
Source text: as §4, §5

[13] = system: collagen type 1 (COL1A1); assay: Western blot protein expression of COL1A1 in TGF-β treated A549 cells; settings: TGF-β 10 ng/ml + compound 20 μM, 24 hours, FIGS. 13 to 15
Source text: as §4
as §5, with “A549” for “LX2”, “2.5×10^5” for “7.6×10^5”, “well” for “dish”, “6 well plate,” for “60 φ dish,”, “24” for “48”

[14] = system: fibronectin; assay: Western blot protein expression of fibronectin in TGF-β treated A549 cells; settings: TGF-β 10 ng/ml + compound 20 μM, 24 hours, FIGS. 13 to 15
Source text: as §4
as §5, with “A549” for “LX2”, “2.5×10^5” for “7.6×10^5”, “well” for “dish”, “6 well plate,” for “60 φ dish,”, “24” for “48”

[15] = system: HSP60; assay: Western blot protein expression of HSP60 in TGF-β treated A549 cells; settings: TGF-β 10 ng/ml + compound 20 μM, 24 hours, FIGS. 13 to 15
Source text: as §4
as §5, with “A549” for “LX2”, “2.5×10^5” for “7.6×10^5”, “well” for “dish”, “6 well plate,” for “60 φ dish,”, “24” for “48”

[16] = system: collagen type 1 (COL1A1); assay: Western blot protein expression of COL1A1 in TGF-β treated HK-2 cells; settings: TGF-β 10 ng/ml + compound 20 μM, 48 hours, FIGS. 16 to 18
Source text: as §4
as §5, with “HK-2” for “LX2”, “1×10^6” for “7.6×10^5”

[17] = system: fibronectin; assay: Western blot protein expression of fibronectin in TGF-β treated HK-2 cells; settings: TGF-β 10 ng/ml + compound 20 μM, 48 hours, FIGS. 16 to 18
Source text: as §4
as §5, with “HK-2” for “LX2”, “1×10^6” for “7.6×10^5”

[18] = system: HSP60; assay: Western blot protein expression of HSP60 in TGF-β treated HK-2 cells; settings: TGF-β 10 ng/ml + compound 20 μM, 48 hours, FIGS. 16 to 18
Source text: as §4
as §5, with “HK-2” for “LX2”, “1×10^6” for “7.6×10^5”

## CNC(=S)NCc1ccc(OCc2ccccc2)cc1 [TB-840, 1-(4-benzyloxy-benzyl)-3-methyl-thiourea]
[1]
  cell viability: ~100%
[2]
  cell viability: ~100%
[3]
  cell viability: ~100%
[4]
  gene expression of COL1A1 compared to the group treated with TGF-β: reduced
[5]
  gene expression of fibronectin compared to the group treated with TGF-β: reduced
[6]
  gene expression of COL1A1 compared to the group treated with TGF-β: reduced
[7]
  gene expression of fibronectin compared to the group treated with TGF-β: reduced
[8]
  gene expression of COL1A1 compared to the group treated with TGF-β: reduced
[9]
  gene expression of fibronectin compared to the group treated with TGF-β: reduced
[10]
  protein expression of COL1A1 compared to the group treated with TGF-β: reduced
[11]
  protein expression of fibronectin compared to the group treated with TGF-β: reduced
[12]
  protein expression of HSP60: no change
[13]
  protein expression of COL1A1 compared to the group treated with TGF-β: reduced
[14]
  protein expression of fibronectin compared to the group treated with TGF-β: reduced
[15]
  protein expression of HSP60: no change
[16]
  protein expression of COL1A1 compared to the group treated with TGF-β: reduced
[17]
  protein expression of fibronectin compared to the group treated with TGF-β: reduced
[18]
  protein expression of HSP60: no change
